{"source": "paper PMC4440585", "about": "(Biochemistry, 2015)", "target": "mitochondrial complex I (Rattus norvegicus, UniProt A6K8N6+P03889+Q641Y2)", "assay": "NADH oxidation at […] nm, NADH:ubiquinone-1 activity of solubilized mitochondria", "assay_type": "biochemical", "conditions": "read-out: % inhibition at 25 mM"}
{"smiles": "CN(C)C(=N)NC(=N)N", "note": "[metformin]", "values": [{"measurement": "inhibition at 25000 µM", "result": 12.1, "unit": "%"}]}
